Experimental data published in PubChem BioAssay (NCI).
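48-hour exposure; five concentrations; linearly interpolated endpoints. Definition used: TGI = concentration required for complete inhibition of growth.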

How the values were obtained:
Assay in all cases: growth of human tumour cells (NCI), 48 h
[1] = system: HCT-15 colon
[2] = system: U251 CNS
[3] = system: PC-3 prostate
[4] = system: HCC-2998 colon
[5] = system: MDA-N
[6] = system: SR leukemia
[7] = system: HS 578T breast
[8] = system: TK-10 renal
[9] = system: SK-MEL-2 melanoma
[10] = system: OVCAR-5 ovarian
[11] = system: DU-145 prostate
[12] = system: NCI-H226 lung
[13] = system: SN12C renal
[14] = system: SK-MEL-5 melanoma
[15] = system: NCI-H522 lung
[16] = system: KM12 colon
[17] = system: A549 NSCLC
[18] = system: OVCAR-3 ovarian
[19] = system: SF-268 CNS
[20] = system: K-562 leukemia
[21] = system: OVCAR-8 ovarian
[22] = system: SW-620 colon
[23] = system: EKVX NSCLC
[24] = system: M14 melanoma
[25] = system: SK-MEL-28 melanoma
[26] = system: HCT-116 colon
[27] = system: MDA-MB-435
[28] = system: UACC-62 melanoma
[29] = system: RPMI-8226 leukemia
[30] = system: NCI-H23 lung
[31] = system: UO-31 renal
[32] = system: SNB-75 CNS
[33] = system: IGROV1 ovarian
[34] = system: SNB-19 CNS
[35] = system: ACHN renal
[36] = system: NCI-H460 lung
[37] = system: SF-295 CNS
[38] = system: BT-549 breast
[39] = system: LOX IMVI melanoma
[40] = system: MDA-MB-231 breast
[41] = system: MALME-3M melanoma
[42] = system: MCF7 breast
[43] = system: NCI/ADR-RES ovarian
[44] = system: COLO 205 colon
[45] = system: OVCAR-4 ovarian
[46] = system: HT29 colon
[47] = system: A498 renal
[48] = system: CCRF-CEM leukemia
[49] = system: T-47D breast
[50] = system: RXF 393 renal
[51] = system: HOP-92 NSCLC
[52] = system: SF-539 CNS
[53] = system: 786-0 renal
[54] = system: UACC-257 melanoma
[55] = system: CAKI-1 renal
[56] = system: MOLT-4 leukemia
[57] = system: HL-60(TB) leukemia
[58] = system: SK-OV-3 ovarian
[59] = system: HOP-62 NSCLC

CCOC1OC(COC(=O)C(C)(C)C)C(O)CC1n1cc(C)c(=O)[nH]c1=O (stereo not drawn)
TGI [1]: > 100 µM | TGI [2]: > 100 µM | TGI [3]: > 100 µM | TGI [4]: > 100 µM | TGI [5]: > 100 µM | TGI [6]: > 100 µM | TGI [7]: > 100 µM | TGI [8]: > 100 µM | TGI [9]: > 100 µM | TGI [10]: > 100 µM | TGI [11]: > 100 µM | TGI [12]: > 100 µM | TGI [13]: > 100 µM | TGI [14]: > 100 µM | TGI [15]: > 100 µM | TGI [16]: > 100 µM | TGI [17]: > 100 µM | TGI [18]: > 100 µM | TGI [19]: > 100 µM | TGI [20]: > 100 µM | TGI [21]: > 100 µM | TGI [22]: > 100 µM | TGI [23]: > 100 µM | TGI [24]: > 100 µM | TGI [25]: > 100 µM | TGI [26]: > 100 µM | TGI [27]: > 100 µM | TGI [28]: > 100 µM | TGI [29]: > 100 µM | TGI [30]: > 100 µM | TGI [31]: > 100 µM | TGI [32]: > 100 µM | TGI [33]: > 100 µM | TGI [34]: > 100 µM | TGI [35]: > 100 µM | TGI [36]: > 100 µM | TGI [37]: > 100 µM | TGI [38]: > 100 µM | TGI [39]: > 100 µM | TGI [40]: > 100 µM | TGI [41]: > 100 µM | TGI [42]: > 100 µM | TGI [43]: > 100 µM | TGI [44]: > 100 µM | TGI [45]: > 100 µM | TGI [46]: > 100 µM | TGI [47]: > 100 µM | TGI [48]: > 100 µM | TGI [49]: > 100 µM | TGI [50]: > 100 µM | TGI [51]: > 100 µM | TGI [52]: > 100 µM | TGI [53]: > 100 µM | TGI [54]: > 100 µM | TGI [55]: > 100 µM

NC(=O)C1CCCN1C(=O)C(Cc1cnc[nH]1)NC(=O)C1CCCC1 (stereo not drawn)
TGI [1]: > 100 µM | TGI [2]: > 100 µM | TGI [56]: > 100 µM | TGI [3]: > 100 µM | TGI [4]: > 100 µM | TGI [5]: > 100 µM | TGI [6]: > 100 µM | TGI [7]: > 100 µM | TGI [57]: > 100 µM | TGI [8]: > 100 µM | TGI [10]: > 100 µM | TGI [11]: > 100 µM | TGI [12]: > 100 µM | TGI [13]: > 100 µM | TGI [14]: > 100 µM | TGI [15]: > 100 µM | TGI [16]: > 100 µM | TGI [17]: > 100 µM | TGI [18]: > 100 µM | TGI [20]: > 100 µM | TGI [21]: > 100 µM | TGI [22]: > 100 µM | TGI [23]: > 100 µM | TGI [24]: > 100 µM | TGI [25]: > 100 µM | TGI [26]: > 100 µM | TGI [27]: > 100 µM | TGI [28]: > 100 µM | TGI [29]: > 100 µM | TGI [30]: > 100 µM | TGI [31]: > 100 µM | TGI [32]: > 100 µM | TGI [33]: > 100 µM | TGI [58]: > 100 µM | TGI [34]: > 100 µM | TGI [35]: > 100 µM | TGI [36]: > 100 µM | TGI [37]: > 100 µM | TGI [38]: > 100 µM | TGI [59]: > 100 µM | TGI [39]: > 100 µM | TGI [40]: > 100 µM | TGI [41]: > 100 µM | TGI [42]: > 100 µM | TGI [43]: > 100 µM | TGI [44]: > 100 µM | TGI [45]: > 100 µM | TGI [46]: > 100 µM | TGI [47]: > 100 µM | TGI [48]: > 100 µM | TGI [49]: > 100 µM | TGI [50]: > 100 µM | TGI [51]: > 100 µM | TGI [53]: > 100 µM | TGI [55]: > 100 µM

CN(Cc1ccccc1)Cn1ccnc1
TGI [1]: > 100 µM | TGI [2]: > 100 µM | TGI [56]: > 100 µM | TGI [3]: > 100 µM | TGI [5]: > 100 µM | TGI [6]: > 66.8 µM | TGI [7]: > 100 µM | TGI [57]: > 100 µM | TGI [8]: > 100 µM | TGI [9]: > 100 µM | TGI [10]: > 100 µM | TGI [11]: > 100 µM | TGI [12]: > 100 µM | TGI [13]: > 100 µM | TGI [14]: > 63.4 µM | TGI [15]: > 100 µM | TGI [16]: > 100 µM | TGI [17]: > 100 µM | TGI [18]: > 100 µM | TGI [19]: > 100 µM | TGI [20]: > 100 µM | TGI [21]: > 100 µM | TGI [22]: > 100 µM | TGI [23]: > 100 µM | TGI [24]: 39.6 µM | TGI [25]: > 68 µM | TGI [26]: > 100 µM | TGI [27]: > 100 µM | TGI [28]: > 100 µM | TGI [29]: > 78.1 µM | TGI [30]: > 100 µM | TGI [31]: > 100 µM | TGI [32]: > 100 µM | TGI [33]: > 100 µM | TGI [58]: > 100 µM | TGI [34]: > 100 µM | TGI [35]: > 100 µM | TGI [36]: > 80.6 µM | TGI [37]: > 100 µM | TGI [38]: > 100 µM | TGI [59]: > 100 µM | TGI [39]: > 100 µM | TGI [40]: 98.1 µM | TGI [41]: 50.4 µM | TGI [42]: > 100 µM | TGI [43]: > 100 µM | TGI [44]: > 86.7 µM | TGI [45]: > 100 µM | TGI [46]: > 100 µM | TGI [47]: > 100 µM | TGI [48]: > 71.2 µM | TGI [49]: > 100 µM | TGI [50]: > 100 µM | TGI [51]: > 100 µM | TGI [52]: > 100 µM | TGI [53]: > 100 µM | TGI [54]: 47.4 µM | TGI [55]: > 100 µM
